Patent US10294202B2, “Pyrrolidinones as herbicides” (FMC Corporation, priority 2013, dated 2019)

Columns and labels:
wheat = experiment: Test A pre-/postemergence herbicide test; format: in vivo, Triticum aestivum; conditions: Postemergence
In short: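 Greenhouse pot test with pre- and postemergence application of surfactant-containing solvent formulations. Postemergence plants were 2–10 cm, one- to two-leaf stage. Response scored visually after ~10 days, 0 (no effect) to 100 (complete control).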

sedge, umbrella = experiment: Test C flooded paddy test; format: in vivo, Cyperus difformis; conditions: Flood, scale of 0 to 100 where 0 is no effect and 100 is complete control, 13 to 15 days
In short: (§1)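 Plants at the 2-leaf stage in pots flooded to 3 cm were treated by applying compound directly to the paddy water, with depth held throughout. After 13 to 15 days in a greenhouse, response was rated visually against controls on a 0 (no effect) to 100 (complete control) scale.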

rice [1] = experiment: Test B flooded paddy test; format: in vivo, Oryza sativa; conditions: 500 g ai/ha, Flood; scale of 0 to 100 where 0 is no effect and 100 is complete control
In short: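 Visual ratings from 0, meaning no effect, up to 100, meaning complete control, were made by comparison with untreated controls 13 to 15 days after treatment. Test compounds went straight into floodwater standing 3 cm over the soil of pots holding 2-leaf seedlings.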

rice [2] = experiment: Test C flooded paddy test; format: in vivo, Oryza sativa; conditions: Flood, scale of 0 to 100 where 0 is no effect and 100 is complete control, 13 to 15 days
In short: as §1

galium = experiment: Test C pre-/postemergence herbicide test; format: in vivo, Galium aparine; conditions: Preemergence
In short: (§2)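 Greenhouse pots; formulation = non-phytotoxic solvent mix + surfactant. PRE onto seeds in loam:sand; POST at 1–4 leaves (2–18 cm) in peat moss/vermiculite medium. Read-out: visual % control vs untreated, day 13–15.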

foxtail, giant = experiment: Test C pre-/postemergence herbicide test; format: in vivo, Setaria faberii
In short: as §2

wheat (winter wheat) = experiment: Test C pre-/postemergence herbicide test; format: in vivo, Triticum aestivum
In short: as §2

pigweed = experiment: Test C pre-/postemergence herbicide test; format: in vivo, Amaranthus retroflexus
In short: as §2

[3] = Postemergence, 31 g ai/ha, scale 0 to 100 (0 no effect, 100 complete control)
[4] = Postemergence, 62 g ai/ha, scale 0 (no effect) to 100 (complete control)
[5] = Postemergence, 125 g ai/ha, scale 0 to 100 (0 no effect, 100 complete control)
[6] = Postemergence, 250 g ai/ha, scale 0 to 100 (0 no effect, 100 complete control)
[7] = Preemergence, 31 g ai/ha, scale 0 to 100, 0 is no effect and 100 is complete control
[8] = Preemergence, 62 g ai/ha, scale 0 to 100 (0 no effect, 100 complete control)
[9] = Preemergence, 125 g ai/ha, scale 0 to 100

O=C1NCC(c2cccc(C(F)(F)F)c2)C1C(=O)Nc1ccccc1Cl (centres unmarked) [Compound 312]
Plant response rating, Wheat (wheat; 125 g ai/ha, visual rating on 0 to 100 scale (0 no effect, 100 complete control), approx. 10 days): 40 | Plant response rating, Wheat (wheat; 500 g ai/ha, 0 to 100 scale (0 no effect, 100 complete control)): 70 | Plant response rating, Sedge, Umbrella (sedge, umbrella; 31 g ai/ha): 0 | Plant response rating, Sedge, Umbrella (sedge, umbrella; 62 g ai/ha): 0 | Plant response rating, Sedge, Umbrella (sedge, umbrella; 125 g ai/ha): 0 | Plant response rating, Sedge, Umbrella (sedge, umbrella; 250 g ai/ha): 0 | Plant response rating, Rice (rice [1]): 20 | Plant response rating, Rice (rice [2]; 31 g ai/ha): 0 | Plant response rating, Rice (rice [2]; 62 g ai/ha): 0 | Plant response rating, Rice (rice [2]; 125 g ai/ha): 0 | Plant response rating, Rice (rice [2]; 250 g ai/ha): 0 | Galium plant response rating (galium; 31 g ai/ha, scale 0 to 100, 0 is no effect and 100 is complete control): 90 | Galium plant response rating (galium; 62 g ai/ha, scale 0 to 100 (0 no effect, 100 complete control)): 0 | Plant response rating, Galium (galium; 125 g ai/ha, scale 0 to 100): 5 | Plant response rating (scale of 0 to 100), Galium (galium; 250 g ai/ha): 80 | Plant response rating, Foxtail, Giant (foxtail, giant; [3]): 55 | Plant response rating, Foxtail, Giant (foxtail, giant; [4]): 75 | Plant response rating, Foxtail, Giant (foxtail, giant; [5]): 75 | Plant response rating, Foxtail, Giant (foxtail, giant; [6]): 80 | Foxtail, Giant plant response rating (foxtail, giant; [7]): 90 | Foxtail, Giant plant response rating (foxtail, giant; [8]): 90 | Plant response rating, Foxtail, Giant (foxtail, giant; [9]): 90 | Plant response rating (scale of 0 to 100), Foxtail, Giant (foxtail, giant; Preemergence, 250 g ai/ha): 95 | Plant response rating, Wheat (wheat (winter wheat); [3]): 0 | Plant response rating, Wheat (wheat (winter wheat); [4]): 0 | Plant response rating, Wheat (wheat (winter wheat); [5]): 0 | Plant response rating, Wheat (wheat (winter wheat); [6]): 0 | Wheat plant response rating (wheat (winter wheat); [8]): 30 | Plant response rating, Wheat (wheat (winter wheat); [9]): 60 | Plant response rating (scale of 0 to 100), Wheat (wheat (winter wheat); Preemergence, 250 g ai/ha): 65 | Plant response rating, Pigweed (pigweed; [3]): 10 | Plant response rating, Pigweed (pigweed; [4]): 20 | Plant response rating, Pigweed (pigweed; [5]): 25 | Plant response rating, Pigweed (pigweed; [6]): 45 | Pigweed plant response rating (pigweed; [7]): 25 | Pigweed plant response rating (pigweed; [8]): 40 | Plant response rating, Pigweed (pigweed; [9]): 45 | Plant response rating (scale of 0 to 100), Pigweed (pigweed; Preemergence, 250 g ai/ha): 55
